Drawing on PubChem BioAssay (NCI), this text covers TGI and GI50 for 29 compounds.

Where “and” joins values, the source holds several entries; their conditions need not be identical. Equal values may be shown once.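 Compound exposure: 48 hours, 5 concentrations, 96-well plates. GI50 marks 50% less growth. TGI: total growth inhibition.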

Holding throughout (assay): NCI-60 cell line screen, 48 h
In experiment [1] the test system is HCT-15 colon.
The subject of experiment [2] is HL-60(TB) leukemia.
Experiment [3] has as its system HT29 colon.
Experiment [4] concerns KM12 colon.
Experiment [5] deals with LOX IMVI melanoma.
The subject of experiment [6] is MALME-3M melanoma.
Experiment [7] deals with NCI-H23 lung.
For experiment [8], the system named is SF-295 CNS.
Experiment [9] deals with T-47D breast.
Experiment [10] has as its system BT-549 breast.

`O=C(CCCNC(=O)OCc1ccccc1)OCc1ccc2c(c1)C(=O)c1ccccc1C2=O`: the TGI in [1], in [2], in [3], in experiment [4], in experiment [5] and in [6] was more than 100 µM each time. For the same compound, the figures for the TGI in experiment [7] and in [8] were more than 100 µM and 83.9 µM, respectively.

As for `CN(/N=C/c1ccnc2ccccc12)c1ccc([N+](=O)[O-])cc1[N+](=O)[O-]`, the TGI in [1], in [2], in experiment [3], in experiment [4], in experiment [5] and in experiment [6] was more than 100 µM in each case. Moreover, the TGI in [7] and in [8] was more than 100 µM each time.

Turning to `O=C(N/C(=C\c1ccc(Br)cc1)c1nc2ccccc2s1)c1ccccc1`, the TGI in experiment [1], in experiment [3], in [4], in [5], in experiment [6] and in experiment [7] was more than 100 µM in each case.

With `CC(=O)OCC(OC(C)=O)C(OC(C)=O)C(OC(C)=O)C(=O)CNn1c(-c2ccccc2)nc2ccc(Br)cc2c1=O` (stereo not given), the TGI in experiment [1], in experiment [2], in experiment [3], in [4], in experiment [5] and in [6] was more than 100 µM throughout. For the same compound, the TGI in [7] and in experiment [8] was more than 100 µM throughout.

As for `CC(C)CC(CNC(Cc1ccc(Cl)cc1)C(N)=O)NC(=O)C(Cc1cnc[nH]1)NC(=O)CNC(=O)C(NC(=O)C(C)NC(=O)C(Cc1c[nH]c2ccccc12)NC(=O)C(CCC(=O)O)NC(=O)C(N)Cc1ccccc1)C(C)C` (stereo not given), the TGI in [1], in experiment [2], in [3], in experiment [4], in experiment [7] and in experiment [8] was more than 133 µM throughout.

For `CC1=Nc2c([nH]c(=S)[nH]c2=O)NC(c2ccc(Cl)c(Cl)c2)C1` (stereo not given), the TGI in experiment [1] is more than 60.1 µM; in experiment [2], more than 100 µM; in experiment [3] it was 59.6 µM; in experiment [4], 32.3 µM; in [5], 40.3 µM; in experiment [6], more than 100 µM. Besides, the TGI in experiment [7] came out at 40.2 µM; in [8], 46.3 µM.

As for `CN(C)c1nc(N(C)C)n2nc(-c3ccccc3[N+](=O)[O-])nc2n1`, the TGI in experiment [1] was 31.3 µM; in [2], more than 100 µM; in [3], more than 100 µM; in experiment [4] it was more than 100 µM; in [5], more than 100 µM; in experiment [6] it was more than 100 µM. Besides, the TGI in experiment [7] and in experiment [8] was more than 100 µM each time.

Take `COc1ccc(/C(Cl)=C(\C=O)c2ccc(Br)cc2)cc1OC`: the TGI in experiment [1], in experiment [2], in experiment [3], in experiment [4], in [5] and in experiment [6] was more than 100 µM throughout. For the same compound, the TGI in experiment [7] was more than 100 µM; in [8], 67.9 µM.

For `O=C(O)c1ccc(N=Nc2cc(S(=O)(=O)O)c3cccnc3c2O)cc1`, the TGI in experiment [1], in [2], in experiment [3], in [4], in [5] and in [6] was more than 100 µM throughout. The TGI in [7] and in experiment [8] was more than 100 µM in each case.

For `Oc1ccc(/C=N/Nc2nc3ccccc3s2)c(O)c1`, the GI50 in experiment [1] was 0.734 µM; in experiment [3] it was 3.61 µM; in [4], 2.18 µM; in experiment [5], 3.27 µM; in experiment [6] it was 1.43 µM; in experiment [7] it was 3.03 µM. The GI50 in experiment [8] is 2.86 µM; in [9] it was 3.37 µM. For the same compound, the TGI in experiment [1] is 20.6 µM; in [3], 13.6 µM; in [4], 15.8 µM; in experiment [5] it was 28.8 µM; in experiment [6], 7.26 µM; in [7], more than 100 µM. Besides, the TGI in [8] was 35.4 µM; in [9] it was more than 100 µM.

Turning to `OCC(O)COc1c(Cl)ccc(Cl)c1Cl` (stereo not given), the TGI in [1], in experiment [2], in experiment [3], in experiment [4], in experiment [5] and in experiment [6] was more than 100 µM each time. The TGI in experiment [7] and in experiment [8] was more than 100 µM throughout.

With `COc1cc(OC)c(OC)cc1/C=C1\C=Cc2ccccc21`, the TGI was 61.4 µM in [1]; 35.2 µM in [2]; more than 100 µM in [3]; 41.8 µM in experiment [4]; 33.4 µM in [5]; 56.8 µM in experiment [6]. The TGI in experiment [7] is more than 100 µM; in experiment [8], 57.6 µM; in experiment [9], more than 100 µM.

For `COc1ccc(OC)c(-c2cc(-c3ccccc3)nn2-c2ccc(S(N)(=O)=O)cc2)c1`, the GI50 was 17.7 µM in [10]; 5.07 µM in experiment [1]; 23.6 µM in experiment [2]; 6.93 µM in experiment [4]; 15.8 µM in experiment [7]; 13.6 µM in [8]. Further, the TGI in experiment [10] is 38.9 µM; in experiment [1] it was 17.1 µM; in [2], more than 100 µM; in [4], 21.6 µM; in experiment [7], 30.2 µM; in experiment [8], 29.2 µM.

For `CCOC(=O)CC1=NC(=Nc2cc(Cl)ccc2Cl)SC1`, the TGI in experiment [1], in experiment [2], in [3], in experiment [4], in [5] and in experiment [6] was more than 100 µM in each case. Further, the TGI in experiment [7] and in [8] was more than 100 µM each time.

For the compound `C[C@H]1COC2(c3ccccc3)CCC(=O)N12` (stereo not given in full), the TGI in [1], in experiment [3], in experiment [4], in [5], in experiment [6] and in [7] was more than 100 µM each time. The TGI in [8] was more than 100 µM.

`COC(=O)C1=C(c2cc(OC)c(OC)c(OC)c2)OC(c2cc(OC)c(OC)c(OC)c2)C1COC(C)=O` (stereo not given): the TGI is more than 100 µM in experiment [1]; 30.5 µM in experiment [2]; more than 100 µM in experiment [3]; more than 100 µM in [4]; 57 µM in experiment [5]; more than 100 µM in [6]. Moreover, the TGI in experiment [7] and in [8] was more than 100 µM each time.

In the case of `CCc1ccccc1-n1c2nc(=O)n(C)c(=O)c-2nc2ccccc21`, the TGI was determined as 23.4 µM in experiment [1]; 14.3 µM in experiment [3]; 34.2 µM in [4]; 18.2 µM in [6]; 18.2 µM in [7]; 24 µM in [8].

For `O=C(CCc1ccccc1)On1nnc2ccccc2c1=O`, the TGI in experiment [1], in experiment [2], in experiment [3], in experiment [4], in [5] and in experiment [6] was more than 100 µM in each case. Further, the TGI in [7] and in [8] was more than 100 µM each time.

`O=C1OC(c2ccccc2)=N/C1=C\c1c(O)cc(O)cc1O`: the TGI in [1], in [3], in experiment [4], in experiment [5], in experiment [6] and in experiment [7] was more than 100 µM each time.

Turning to `Cc1cccc2c1Oc1cc(Cl)ccc1C2NC(=O)CN(C)C` (stereo not given), the TGI in experiment [1] was more than 100 µM; in experiment [2], 45.3 µM; in experiment [3] it was more than 100 µM; in experiment [5] it was more than 100 µM; in experiment [7] it was more than 100 µM.

`N#CCC(=O)N/N=C1/C(=O)NC(=O)C(=O)C1c1nc2ccccc2s1` (stereo not given): the TGI in [1], in [3], in experiment [5], in [6], in [7] and in experiment [8] was more than 100 µM in each case.

In the case of `COc1ccc2[nH]c(-c3cccc(N(C)C)c3)cc(=O)c2c1`, the GI50 was 0.374 µM in experiment [1]; 0.231 µM in experiment [2]; 0.345 µM in experiment [3]; 0.393 µM in experiment [4]; 0.599 µM in experiment [5]; 0.664 µM in experiment [7]. Besides, the GI50 in experiment [8] was 3.71 µM. For the same compound, the TGI is 0.592 µM and 0.569 µM in experiment [2]; 1.46 µM and 3.21 µM in [3]; more than 100 µM in experiment [6].

Consider `COc1ccc(/C=C/c2nc(=S)[nH][nH]2)cc1`, for which the TGI in experiment [1], in [2], in experiment [3], in experiment [5], in [6] and in experiment [7] was more than 100 µM in each case. In experiment [8], this compound returned a TGI of more than 100 µM.

In the case of `CCOC(=O)c1c(C)n(CC(C)C)c2c1cc1oc(=O)c(=O)n3cnc2c13`, the GI50 in experiment [10] was 15.7 µM; in [1], 15.2 µM; in experiment [2], 11.5 µM; in experiment [3], 17.2 µM; in experiment [4], 13.6 µM; in experiment [5], 8.45 µM. For the same compound, the GI50 was 12.3 µM in experiment [7] and 12.8 µM in experiment [8]. Moreover, the TGI in experiment [10] was 43 µM; in experiment [1], more than 50 µM; in experiment [2], 36.4 µM; in [3], more than 50 µM; in experiment [4], 38.3 µM; in experiment [5], 16 µM. The TGI in [7] was determined as 31 µM; in experiment [8] it was 33 µM.

As for `Cc1ccc(S(=O)(=O)NC(CCC(=O)Nc2ccccc2)C(=O)Nc2ccccc2)cc1` (stereo not given), the GI50 is 0.55 µM in [2], 0.745 µM in [6], 0.362 µM in [8] and 0.206 µM in experiment [9]. For the same compound, the TGI was determined as 3.08 µM in [2], 2.51 µM in experiment [6], 1.69 µM in experiment [8] and 0.934 µM in experiment [9].

With `COC1(OC)CC2C(=O)N(Cc3ccccc3)C1CC2S(=O)(=O)c1ccccc1` (stereo not given), the TGI in experiment [1], in experiment [2], in experiment [3], in experiment [4], in [5] and in experiment [6] was more than 100 µM in each case. The TGI in experiment [7] and in experiment [8] was more than 100 µM throughout.

On to `CCOC(=O)CNC(=O)CCCn1c(=O)c2c3ccccc3n(C)c2n2nnc(-c3ccccc3)c12`, for which the GI50 in experiment [1] is more than 50 µM; in [2], 20.6 µM; in experiment [3], more than 50 µM; in [4], more than 50 µM; in [5], 25.1 µM; in experiment [6] it was more than 50 µM. For the same compound, the figures for the GI50 in experiment [7], in experiment [8] and in [9] were 11.8 µM, 4.83 µM and 43.9 µM, respectively. Further, the TGI in [1], in experiment [2], in experiment [3], in experiment [4], in experiment [5] and in experiment [6] was more than 50 µM throughout. Moreover, the TGI in [7] was more than 50 µM; in experiment [8], 17.4 µM; in experiment [9], more than 50 µM.

As for `CCOC(=O)C1=C(NC(C)(C)C)OCC1=O`, the TGI in [1], in experiment [2], in experiment [3], in experiment [4], in [5] and in experiment [6] was more than 100 µM in each case. The TGI in [7] and in experiment [8] was more than 100 µM each time.

As for `Cc1c(C2Cc3ccccc3N2C(=O)/C=C\C(=O)O)c2ccccc2n1C` (stereo not given), the TGI in experiment [1] is more than 100 µM; in experiment [2], 51.6 µM; in experiment [3], more than 100 µM; in experiment [4], 35.6 µM; in experiment [5], 32.6 µM; in experiment [6], more than 100 µM. Further, the TGI in [7] was determined as 62.9 µM; in [8], 50.4 µM.
